15 molecules from ChEMBL document CHEMBL3232736, “Antiproliferative activities of halogenated thieno[3,2-d]pyrimidines” (Bioorg Med Chem, 2014) can be followed below.

Structures are written as SMILES. Values after ≈ are worked out from the molar mass of the structure shown. Active and inactive are the calls of the source. The calls are words filed in the database; no cut-off is given here. Some results are limits rather than exact numbers.

Broadly, the IC50 is the concentration that inhibits the measured activity by half.

Data set [1] concerns L1210. Kind of data set: Cytotoxicity against mouse L1210 cells assessed as reduction in cell number after 48 hrs by cell counting assay. The data set is classed as functional, cell-based. The conditions noted are these: L1210, 48 h.
In data set [2] the test system is CCRF-CEM. Kind of data set: Cytotoxicity against human CCRF-CEM cells assessed as reduction in cell number after 72 hrs by cell counting assay. The format is functional, cell-based.
The subject of data set [3] is HeLa. The data set is described as follows: Cytotoxicity against human HeLa cells assessed as reduction in cell number after 72 hrs by cell counting assay. The data set is classed as functional, cell-based.
In data set [4] the test system is Escherichia coli. Kind of data set: Antibacterial activity against Escherichia coli ATCC 25922 assessed as growth inhibition at 100 uM after 16 to 20 hrs by microbroth dilution method. The format is functional, organism-based. On the technique in general: Broth dilution looks for growth in wells or tubes with falling amounts of substance.
In data set [5] the test system is Bacillus spizizenii. Kind of data set: Antibacterial activity against Bacillus subtilis ATCC 6633 assessed as growth inhibition at 100 uM after 16 to 20 hrs by microbroth dilution method. The format is functional.
Data set [6] has as its system Staphylococcus aureus. Kind of data set: Antibacterial activity against methicillin-resistant Staphylococcus aureus subsp. aureus ATCC 43300 assessed as growth inhibition at 100 uM after 16 to 20 hrs by microbroth dilution method. The format is functional, organism-based.
In data set [7] the test system is Candida albicans. The data set is described as follows: Antifungal activity against Candida albicans ATCC 10231 assessed as growth inhibition at 100 uM after 16 to 20 hrs by microbroth dilution method. The format is functional.
The test system of data set [8] is Cryptococcus neoformans. The data set is described as follows: Antifungal activity against Cryptococcus neoformans ATCC 66031 assessed as growth inhibition at 100 uM after 48 hrs by microbroth dilution method. The data set is classed as functional.
The subject of data set [9] is Cryptococcus neoformans. Kind of data set: Antifungal activity against Cryptococcus neoformans JEC20 assessed as growth inhibition at 100 uM after 48 hrs by microbroth dilution method. The data set is classed as functional.
In data set [10] the test system is Cryptococcus neoformans. The data set is described as follows: Antifungal activity against Cryptococcus neoformans VANC-R265 assessed as growth inhibition at 100 uM after 48 hrs by microbroth dilution method. The format is functional.
Data set [11] relates to Cryptococcus neoformans. Kind of data set: Antifungal activity against Cryptococcus neoformans B4546 assessed as growth inhibition at 100 uM after 48 hrs by microbroth dilution method. The format is functional.
The subject of data set [12] is HEL. The data set is described as follows: Cytotoxicity against human HEL cells assessed as reduction in cell number by cell counting assay. The format is functional.
In data set [13] the test system is Vero. Kind of data set: Cytotoxicity against African green monkey Vero cells assessed as reduction in cell number. The data set is classed as cell-based. The conditions noted are these: chlorocebus sabaeus.
Data set [14] has as its system HeLa. Kind of data set: Cytotoxicity against human HeLa cells assessed as reduction in cell number. The data set is classed as functional.
Data set [15] has as its system Pseudomonas aeruginosa. Kind of data set: Antibacterial activity against Pseudomonas aeruginosa ATCC 27853 assessed as growth inhibition after 16 to 20 hrs by microbroth dilution method. The data set is classed as functional.
Data set [16] relates to Escherichia coli. Kind of data set: Antibacterial activity against Escherichia coli ATCC 25922 assessed as growth inhibition after 16 to 20 hrs by microbroth dilution method. The format is functional.
For data set [17], the system named is Bacillus spizizenii. Kind of data set: Antibacterial activity against Bacillus subtilis ATCC 6633 assessed as growth inhibition after 16 to 20 hrs by microbroth dilution method. The format is functional.
Data set [18] has as its system Staphylococcus aureus. Kind of data set: Antibacterial activity against methicillin-resistant Staphylococcus aureus subsp. aureus ATCC 43300 assessed as growth inhibition after 16 to 20 hrs by microbroth dilution method. The data set is classed as functional.
For data set [19], the system named is Enterococcus faecalis. The data set is described as follows: Antibacterial activity against vancomycin-resistant Enterococcus faecalis ATCC 51299 assessed as growth inhibition after 16 to 20 hrs by microbroth dilution method. The format is functional.

Regarding `COc1nc(OC)c2scc([C@H]3C[C@H](O)[C@@H](CO)O3)c2n1`, the IC50 in [1], in [2] and in [3] was greater than 250 µM throughout.

On to `O=c1[nH]c(=O)c2scc([C@H]3C[C@H](O)[C@@H](CO)O3)c2[nH]1`, for which the IC50 in [1], in [2] and in data set [3] was greater than 250 µM each time.

In the case of `Clc1nc(Cl)c2[nH]ccc2n1`, the inhibition entry in data set [4], in [5], in data set [6], in data set [7], in data set [8] and in data set [9] was “inactive” in each case. The inhibition entry in [10] and in data set [11] was “inactive” throughout. Moreover, the IC50 in [1] came to 6.8 µM; in data set [2], 25 µM; in data set [3], 19 µM. The MIC99 in data set [12] is 20 µM (≈ 3.76 µg/mL); in [13], “>= 20 uM”; in data set [14], 20 µM (≈ 3.76 µg/mL).

As to `CN(C)[C@@H]1C(O)=C(C(N)=O)C(=O)[C@@]2(O)C(O)=C3C(=O)c4c(O)cccc4[C@@](C)(O)[C@H]3C[C@@H]12` [TETRACYCLINE], the MIC95 was 50 µg/mL (≈ 113 µM) in [15]; 10 µg/mL (≈ 22.5 µM) in data set [16]; 10 µg/mL (≈ 22.5 µM) in [17]; 10 µg/mL (≈ 22.5 µM) in data set [18]; 10 µg/mL (≈ 22.5 µM) in data set [19].

Regarding `O=c1[nH]c(=O)c2scc(Br)c2[nH]1`, the concentration for half-maximal inhibition (IC50) in data set [1], in data set [2] and in [3] was greater than 250 µM throughout.

Consider `Nc1nc(Cl)nc2ccsc12`, for which the IC50 in data set [1], in data set [2] and in data set [3] was greater than 250 µM each time.

For the molecule `O=c1[nH]c(=O)c2sccc2[nH]1`, the IC50 in data set [1], in data set [2] and in data set [3] was greater than 250 µM throughout.

Turning to `Nc1nc(Cl)nc2c(Br)csc12`, the IC50 in [1] amounted to 150 µM; in data set [2], 109 µM; in data set [3], 96 µM.

With `COc1nc(OC)c2scc([C@H]3CC(=O)[C@@H](CO)O3)c2n1`, the IC50 in data set [1], in data set [2] and in data set [3] was greater than 250 µM each time.

For the molecule `Clc1nc(-n2cncn2)c2scc(Br)c2n1`, the IC50 is 157 µM in [1], 84 µM in data set [2] and 116 µM in data set [3].

In the case of `Clc1nc(-n2cncn2)c2sccc2n1`, the IC50 in data set [1], in [2] and in data set [3] was greater than 250 µM throughout.

On to `O=c1[nH]cc(F)c(=O)[nH]1` [FLUOROURACIL], for which, in [1], the IC50 was found to be 0.33 µM.

In the case of `Clc1ncc2sccc2n1`, the inhibition result in [4], in data set [5], in data set [6], in [7], in data set [8] and in data set [9] was “inactive” throughout. For the same molecule, the inhibition entry in data set [10] and in data set [11] was “inactive” each time. Also, the IC50 in [1], in [2] and in [3] was greater than 250 µM throughout.

Regarding `COc1nc(OC)c2scc(Br)c2n1`, the IC50 was greater than 250 µM in [1], no less than 250 µM in data set [2] and 203 µM in data set [3].

For the molecule `COc1nc(OC)c2scc([C@H]3C[C@H](OC(C)=O)[C@@H](COC(C)=O)O3)c2n1`, the IC50 in data set [1], in data set [2] and in [3] was greater than 250 µM each time.
